Experimental data taken from patent US5444087A, “Manumycin compounds” (Bristol-Myers Squibb Company, priority 1993, dated 1995).
Converted amounts (≈) assume the structure as drawn.

Assays:
Solubility = type: physicochemical
[1] = tested on: Salmonella typhimurium A27908; assay: MIC by broth dilution assay, S. typhimurium A27908; type: cell-based; details: Salmonella enterica, serial broth dilution, nutrient broth
Bacillus subtilis A9506 = assay: MIC by broth dilution assay, B. subtilis A9506; type: cell-based; details: serial broth dilution, nutrient broth
[2] = target: farnesylation of Ras protein p21 (protein-cysteine farnesyltransferase); assay: Inhibition of farnesylation of Ras protein p21 (assay of Manne et al.); type: biochemical; details: assay described by Manne et al. (1990); read-out: IC50 value in inhibiting the farnesylation of Ras protein p21
M. luteus A21349 = assay: MIC by broth dilution assay, M. luteus A21349; type: cell-based; details: Micrococcus luteus, serial broth dilution, nutrient broth
[3] = tested on: Klebsiella pnneumoniae A9664; assay: MIC by broth dilution assay, K. pneumoniae A9664; type: cell-based; details: serial broth dilution, nutrient broth
[4] = tested on: Staphylococcus aureus A9537; assay: MIC by broth dilution assay, S. aureus A9537; type: cell-based; details: serial broth dilution, nutrient broth
Proteus mirabilis A9900 = assay: MIC by broth dilution assay, P. mirabilis A9900; type: cell-based; details: serial broth dilution, nutrient broth
[5] = tested on: Staphylococcus aureus A9606; assay: MIC by broth dilution assay, S. aureus A9606; type: cell-based; details: serial broth dilution, nutrient broth
[6] = tested on: Enterobacter cloacae A9656; assay: MIC by broth dilution assay, E. cloacae A9656; type: cell-based; details: serial broth dilution, nutrient broth
Escherichia coli SGB888 = assay: MIC by broth dilution assay, E. coli SGB888; type: cell-based; details: serial broth dilution, nutrient broth
Micrococcus luteus A9852 = assay: MIC by broth dilution assay, M. luteus A9852; type: cell-based; details: serial broth dilution, nutrient broth
[7] = tested on: Pseudomonas aeruginosa A9843; assay: MIC by broth dilution assay, P. aeruginosa A9843; type: cell-based; details: serial broth dilution, nutrient broth
[8] = tested on: Staphylococcus epidermidis A24548; assay: MIC by broth dilution assay, S. epidermidis A24548; type: cell-based; details: serial broth dilution, nutrient broth

Row | SMILES | solubility in acetone (Solubility) | solubility in acetonitrile (Solubility) | solubility in dimethyl sulfoxide (Solubility) | solubility in hexane (Solubility) | solubility in water (Solubility) | MIC [1] [µg/mL] | MIC (Bacillus subtilis A9506) [µg/mL] | IC50 [2] [µM] | MIC (M. luteus A21349) [µg/mL] | MIC [3] [µg/mL] | MIC [4] [µg/mL] | MIC (Proteus mirabilis A9900) [µg/mL] | MIC [5] [µg/mL] | MIC [6] [µg/mL] | MIC (Escherichia coli SGB888) [µg/mL] | MIC (Micrococcus luteus A9852) [µg/mL] | MIC [7] [µg/mL] | MIC [8] [µg/mL]
1 | CC(C)CC/C=C/C=C/C=C/C(=O)NC1=CC(O)(/C=C/C=C/C=C/C(=O)NC2=C(O)CCC2=O)C2OC2C1=O (stereo not drawn) [Manumycin C, 2,4,6-heptatrienenamide, 7-isopentyl-N-[5-hydroxy-5-[7-[2-hydroxy-5-oxo-1-cyclopenten-1-yl-amino]-7-oxo-1,3,5-heptatrienyl]-2-oxo-7-oxabicyclo[4.1.0]hept-3-en-yl]-, (all-E)-] | soluble | soluble | soluble | insoluble | insoluble | 2 (≈ 3.74 µM) | 1 (≈ 1.87 µM) | 100 | 4 (≈ 7.48 µM) | 128 (≈ 239 µM) | 2 (≈ 3.74 µM) | 128 (≈ 239 µM) | 4 (≈ 7.48 µM) | 128 (≈ 239 µM) | 0.32 (≈ 0.599 µM) | 8 (≈ 15 µM) | 64 (≈ 120 µM) | 2 (≈ 3.74 µM)
2 | O=C(/C=C/C=C/C=C/C1CCCCC1)NC1=CC(O)(/C=C/C=C/C=C/C(=O)NC2=C(O)CCC2=O)C2OC2C1=O (stereo not drawn) [Manumycin D, 2,4,6-heptatrienenamide, 7-cyclohexyl-N-[5-hydroxy-5-[7-[2-hydroxy-5-oxo-1-cyclopenten-1-yl-amino]-7-oxo-1,3,5-heptatrienyl]-2-oxo-7-oxabicyclo[4.1.0]hept-3-en-yl]-, (all-E)-] | soluble | soluble | soluble | insoluble | insoluble | 0.5 (≈ 0.915 µM) | 0.5 (≈ 0.915 µM) | 92.5 | 1 (≈ 1.83 µM) | 128 (≈ 234 µM) | 1 (≈ 1.83 µM) | 128 (≈ 234 µM) | 2 (≈ 3.66 µM) | 128 (≈ 234 µM) | 0.1 (≈ 0.183 µM) | 2 (≈ 3.66 µM) | 128 (≈ 234 µM) | 1 (≈ 1.83 µM)
3 | CC(C)/C=C/C=C/C=C/C(=O)NC1=CC(O)(/C=C/C=C/C=C/C(=O)NC2=C(O)CCC2=O)C2OC2C1=O (stereo not drawn) [Manumycin E, 2,4,6-heptatrienenamide, 7-isopropyl-N-[5-hydroxy-5-[7-[2-hydroxy-5-oxo-1-cyclopenten-1-yl-amino]-7-oxo-1,3,5-heptatrienyl]-2-oxo-7-oxabicyclo[4.1.0]hept-3-en-yl]-, (all-E)-] | soluble | soluble | soluble | insoluble | insoluble | 32 (≈ 63.2 µM) | 8 (≈ 15.8 µM) | 120 | 16 (≈ 31.6 µM) | 128 (≈ 253 µM) | 8 (≈ 15.8 µM) | 128 (≈ 253 µM) | 8 (≈ 15.8 µM) | 128 (≈ 253 µM) | 2.5 (≈ 4.94 µM) | 16 (≈ 31.6 µM) | 128 (≈ 253 µM) | 8 (≈ 15.8 µM)
